This is an account of results in ChEMBL document CHEMBL1140596, “Pharmacophore identification of KSP inhibitors” (Bioorg Med Chem Lett, 2007).

SMILES strings stand for the structures.

For the test, the target named is T1, Kinesin-like protein KIF11 (Homo sapiens, UniProt P52732).
T1 sequence (P52732 whole entry): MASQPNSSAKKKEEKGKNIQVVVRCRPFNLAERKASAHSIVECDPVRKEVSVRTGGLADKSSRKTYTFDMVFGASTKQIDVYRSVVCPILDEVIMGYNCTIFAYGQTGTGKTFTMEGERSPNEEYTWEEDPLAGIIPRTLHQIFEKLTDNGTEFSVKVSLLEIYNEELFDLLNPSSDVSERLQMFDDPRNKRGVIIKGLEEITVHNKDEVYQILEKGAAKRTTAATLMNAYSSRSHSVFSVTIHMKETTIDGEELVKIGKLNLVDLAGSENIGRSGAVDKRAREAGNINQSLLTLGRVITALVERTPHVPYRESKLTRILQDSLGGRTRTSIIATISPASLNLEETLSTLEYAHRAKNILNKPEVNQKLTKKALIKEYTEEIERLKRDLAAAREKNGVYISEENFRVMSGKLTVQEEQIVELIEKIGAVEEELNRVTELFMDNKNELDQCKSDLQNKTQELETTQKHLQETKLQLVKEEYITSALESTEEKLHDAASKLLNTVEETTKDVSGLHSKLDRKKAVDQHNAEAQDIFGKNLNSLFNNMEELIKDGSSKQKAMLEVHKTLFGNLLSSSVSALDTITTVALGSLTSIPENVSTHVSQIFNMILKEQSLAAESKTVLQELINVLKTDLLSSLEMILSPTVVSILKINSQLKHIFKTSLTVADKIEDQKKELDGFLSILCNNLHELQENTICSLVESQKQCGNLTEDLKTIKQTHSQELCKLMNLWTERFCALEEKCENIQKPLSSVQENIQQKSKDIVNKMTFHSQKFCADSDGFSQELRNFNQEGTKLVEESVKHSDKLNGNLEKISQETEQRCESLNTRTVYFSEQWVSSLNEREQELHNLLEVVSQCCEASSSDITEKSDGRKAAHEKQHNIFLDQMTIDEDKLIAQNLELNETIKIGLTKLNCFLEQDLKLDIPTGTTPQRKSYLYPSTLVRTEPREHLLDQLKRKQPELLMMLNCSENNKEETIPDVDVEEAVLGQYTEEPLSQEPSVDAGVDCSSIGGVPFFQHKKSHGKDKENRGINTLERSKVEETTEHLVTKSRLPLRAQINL
The experiment in a line: Inhibition of KSP.
For `Cc1ccc2c(c1C)CNCC2c1ccccc1` (centres undefined), the concentration for half-maximal inhibition (IC50) – broadly, the point on the concentration scale where inhibition reaches its midpoint – amounted to 8.23 µM.

The compound `CC(=O)N1N=C(c2cc(F)ccc2F)C[C@H]1c1ccccc1` gave an IC50 of 0.026 µM.

Compound `Oc1cccc2ccc(SSc3ccc4cccc(O)c4n3)nc12` had a half-inhibitory concentration (IC50) of 145 µM.

`OC1CC2CCC(C1)N2CCCN1c2ccccc2Sc2ccc(Cl)cc21` (centres undefined): half-maximal inhibition (IC50) was put at 5.6 µM.

`CN1Cc2c(ccc3c2CCO3)[C@@H](c2ccccc2)C1` returned an IC50 of 9.7 µM.

In turn, `CCCCN1C(=O)[C@@H]2Cc3c([nH]c4ccccc34)[C@@H](c3cccc(O)c3)N2C1=O` showed a half-inhibitory concentration (IC50) of 0.8 µM.

In turn, `CC[C@H](c1nc2cc(Cl)ccc2c(=O)n1Cc1ccccc1)N(CCCN(C)C)C(=O)c1ccc(Br)cc1` displayed an IC50 of 0.012 µM.

`Cc1ccc(C(=O)N(CCCN)Cc2nc3cc(Cl)ccc3c(=O)n2Cc2ccccc2)cc1` yielded an IC50 of 0.28 µM.

Take `CC(C)(O)C1C[C@@H](O)[C@]2(C)[C@H](CC[C@@]3(C)[C@H]2CC[C@H]2Cc4c([nH]c5ccccc45)[C@@]23C)O1` (some centres undefined): 15 µM corresponded to half-maximal inhibition (IC50).

For `Oc1cccc(C(c2cc(Cl)c(O)c(Cl)c2)C(c2cc(Cl)c(O)c(Cl)c2)c2cc(Cl)c(O)c(Cl)c2)c1Cl` (centres undefined), inhibition was half-maximal at 27 µM (IC50).

For `NCCCCCN1C(=O)[C@@H]2Cc3c([nH]c4ccccc34)[C@@H](c3cccc(O)c3)N2C1=O`, half-maximal inhibition (IC50) was put at 0.09 µM.

Compound `O=C(O)c1cc2c(cc1S(=O)(=O)O)C1C(C3C2C2(Cl)C(Cl)=C(Cl)C3(Cl)C2(Cl)Cl)C2(Cl)C(Cl)=C(Cl)C1(Cl)C2(Cl)Cl` (centres undefined) displayed a 50% inhibitory concentration (IC50) of 22 µM.

Compound `CCNCCN1CCN(CCCN2c3ccccc3Sc3ccc(C(F)(F)F)cc32)CC1` displayed an IC50 of 6.6 µM.

Compound `Cc1cc2c(C(C)C)c(O)c(O)c(C=O)c2c(O)c1-c1c(C)cc2c(C(C)C)c(O)c(O)c(C=O)c2c1O` [GOSSYPOL] registered a concentration for half-maximal inhibition (IC50) of 25 µM.
